In patent US20220380314A1, “SUBSTITUTED, SATURATED AND UNSATURATED N-HETEROCYCLIC CARBOXAMIDES AND RELATED COMPOUNDS FOR THEIR USE IN THE TREATMENT OF MEDICAL DISORDERS” (Bial - R&D Investments, S.A., priority 2019, published 2022):
Where a name gives a salt, the structure may show the parent alone.

Biological target: T1, acid ceramidase (hACR) (Homo sapiens, UniProt Q13510)
T1 construct: expressed in transfected cells; cell lysate used
T1 sequence (Q13510 143-395 limits assumed): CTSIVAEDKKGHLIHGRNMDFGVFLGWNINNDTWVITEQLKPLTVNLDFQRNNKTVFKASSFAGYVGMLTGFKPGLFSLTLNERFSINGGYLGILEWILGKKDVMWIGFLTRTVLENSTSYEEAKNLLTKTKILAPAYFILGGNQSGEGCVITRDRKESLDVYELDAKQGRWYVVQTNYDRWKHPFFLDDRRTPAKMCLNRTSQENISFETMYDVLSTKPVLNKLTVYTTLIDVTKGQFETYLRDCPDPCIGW
T1 sequence (Q13510 22-142 limits assumed): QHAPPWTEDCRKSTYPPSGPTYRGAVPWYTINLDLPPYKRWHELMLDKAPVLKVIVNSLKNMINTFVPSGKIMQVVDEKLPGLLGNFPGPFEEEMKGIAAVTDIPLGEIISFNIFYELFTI
Assay: Acid ceramidase inhibition, biochemical fluorescent assay with cell lysates overexpressing acid ceramidase, substrate Rbm14-12
Settings: cell lysates overexpressing acid ceramidase; 1 hr preincubation at RT; pH 4.5; substrate Rbm14-12 6.3 μM; read-out: hACR IC50
Method: The ability of exemplary compounds to inhibit acid ceramidase was measured.
Cell lysates overexpressing acid ceramidase were used as the enzyme source for compound potency determination in a biochemical fluorescent assay. Briefly, compounds were preincubated with 10 µg protein of cell lysates in a dose-response manner for 1 hr at RT in the assay buffer containing 25 mM NaAC and 100 mM NaCl, pH 4.5. The reaction was initiated by the addition of substrate Rbm14-12 at a final concentration of 6.3 μM. The reaction was run at RT for 1 hr before it was stopped by the addition of the stopping buffer containing 20% methanol (v/v), 1 mg/ml NaIO4, 0.1 M glycine, pH 10.6. The samples were incubated with the stopping buffer at RT for 1 hr to allow the fluorescent product to be formed. Finally the plate was read with SpectraMax i3 plate reader (Molecular Devices) at ex360 nm and em446 nm. Data were collected and used to determine the IC50 values of compounds by curve fitting to the four-parameter inhibition equation.
The symbol “A” indicates inhibition of less than 0.2 μM; the symbol “B” indicates inhibition in the range of 0.2 μM up to 1 μM; and the symbol “C” indicates inhibition of greater than 1 μM.

Compound | IC50 [nM]
COc1ccc(C2COCC(C)(C)N2C(=O)NCCCCC2CC2)cc1 (stereo not drawn) [Example 149, N-(4-Cyclopropylbutyl)-5-(4-methoxyphenyl)-3,3-dimethylmorpholine-4-carboxamide] | < 200
COc1ccc(C2COCC(C)(C)N2C(=O)NCCC2CC2)cc1 (stereo not drawn) [Example 146, N-(2-Cyclopropylethyl)-5-(4-methoxyphenyl)-3,3-dimethylmorpholine-4-carboxamide] | < 200
CC1(C)COCC(c2ccc(F)cc2)N1C(=O)NCCCCc1ccccc1 (stereo not drawn) [Example 136, 5-(4-Fluorophenyl)-3,3-dimethyl-N-(4-phenylbutyl)morpholine-4-carboxamide] | < 200
CC1(C)CN(c2cncnc2)CCN1C(=O)NCCCCc1ccccc1 [Example 105, 2,2-Dimethyl-N-(4-phenylbutyl)-4-pyrimidin-5-yl-piperazine-1-carboxamide] | > 1000
CCCCCNC(=O)N1CC(c2ccccc2)C(N2CCCCC2)CC1(C)C (stereo not drawn) [Example 131, 2,2-Dimethyl-N-pentyl-5-phenyl-4-(1-piperidyl)piperidine-1-carboxamide] | < 200
CCCCCNC(=O)N1CC(C)C(N2CCCCC2)CC1(C)C (stereo not drawn) [Example 124, 2,2,5-Trimethyl-N-pentyl-4-(1-piperidyl)piperidine-1-carboxamide] | < 200
CC1(C)CC(c2ccccc2)CCN1C(=O)NC1CCOCC1 (stereo not drawn) [Example 78, 2,2-Dimethyl-4-phenyl-N-tetrahydropyran-4-yl-piperidine-1-carboxamide] | > 1000
CCCCCNC(=O)N1CCC(c2ccccc2)CC1(C)C (stereo not drawn) [Example 76, 2,2-Dimethyl-N-pentyl-4-phenylpiperidine-1-carboxamide] | > 1000
CCCCCNC(=O)N1C(c2ccccc2C)COCC1(C)C (stereo not drawn) [Example 158, 3,3-Dimethyl-5-(o-tolyl)-N-pentylmorpholine-4-carboxamide] | < 200
COc1cc(N2CCN(C(=O)NCCCCc3ccccc3)C(C)(C)C2=O)ccc1F [Example 109, 4-(4-Fluoro-3-methoxy-phenyl)-2,2-dimethyl-3-oxo-N-(4-phenylbutyl)piperazine-1-carboxamide] | < 200
CCCCCNC(=O)N1C(c2ccc(F)c(OC)c2)COCC1(C)C (stereo not drawn) [Example 163, 5-(4-Fluoro-3-methoxyphenyl)-3,3-dimethyl-N-pentylmorpholine-4-carboxamide] | < 200
CC1(C)CC(N2CCC(c3ccccc3)CC2)CCN1C(=O)NCCCCc1ccccc1 (stereo not drawn) [Example 93, 2,2-Dimethyl-N-(4-phenylbutyl)-4-(4-phenyl-1-piperidyl)piperidine-1-carboxamide] | < 200
CC1(C)CC(=O)C(c2ccccc2)CN1C(=O)NCCCCc1ccccc1 (stereo not drawn) [Example 123, 2,2-Dimethyl-4-oxo5-phenyl-N-(4-phenylbutyl)piperidine-1-carboxamide] | > 1000
CC1(C)CCCCN1C(=O)NCCCCc1ccccc1 [Example 90, 2,2-Dimethyl-N-(4-phenylbutyl)piperidine-1-carboxamide carboxamide] | > 1000
COc1ccc(C2COCC(C)(C)N2C(=O)NCCc2ccc(F)cc2)cc1 (stereo not drawn) [Example 148, N-[2-(4-Fluorophenyl)ethyl]-5-(4-methoxyphenyl)-3,3-dimethylmorpholine-4-carboxamide] | < 200
CC1(C)CC(=O)/C(=C/c2ccccc2)CN1C(=O)NCCCCc1ccccc1 [Example 122, (5E)-5-Benzylidene-2,2-dimethyl-4-oxo-N-(4-phenylbutyl)piperidine-1-carboxamide] | < 200
CC1(C)COCC(c2ccccc2)N1C(=O)NCCCCc1ccccc1 (stereo not drawn) [Example 133, 3,3-Dimethyl-5-phenyl-N-(4-phenylbutyl)morpholine-4-carboxamide] | < 200
CC(C)[C@@H]1CN(C2CC2)CCN1C(=O)NCCCCc1ccccc1 [Example 116, (2R)-4-Cyclopropyl-2-isopropyl-N-(4-phenylbutyl)piperazine-1-carboxamide] | 200 to 1000
COc1ccc(C2COCC(C)(C)N2C(=O)NCC(C)C)cc1 (stereo not drawn) [Example 143, N-iso-Butyl-5-(4-methoxyphenyl)-3,3-dimethylmorpholine-4-carboxamide] | < 200
CCCCCCCNC(=O)N1CCC(N2CCCCC2)CC1(C)C (stereo not drawn) [Example 85, N-Heptyl-2,2-dimethyl-4-(1-piperidyl)piperidine-1-carboxamide] | > 1000

Compound | IC50 [nM]
CCCCCNC(=O)N1CCN(C2CC2)C[C@@H]1C(C)C [Example 118, (2S)-4-Cyclopropyl-2-isopropyl-N-pentylpiperazine-1-carboxamide] | > 1000
CC1(C)CN(C2CCCCC2)CCN1C(=O)NCCCCc1ccccc1 [Example 110, 4-Cyclohexyl-2,2-dimethyl-N-(4-phenylbutyl)piperazine-1-carboxamide] | < 200
CN1CC(c2ccc(F)cc2)N(C(=O)NCCOCC2CC2)C(C)(C)C1 (stereo not drawn) [Example 168, N-[2-(Cyclopropylmethoxy)ethyl]-6-(4-fluorophenyl)-2,2,4-trimethylpiperazine-1-carboxamide hydrochloride] | < 200
CCCCCNC(=O)N1CCC(N2CCCCC2)C[C@H]1C (stereo partly drawn) [Example 96, (2R)-Methyl-N-pentyl-4-(1-piperidyl)piperidine-1-carboxamide hydrochloride salt] | < 200
CC1C(N2CCCCC2)CCCN1C(=O)NCCCCc1ccccc1 (stereo not drawn) [Example 101, 2-Methyl-N-(4-phenylbutyl)-3-(1-piperidyl)piperidine-1-carboxamide] | 200 to 1000
CC1(C)CC(N2CCCC(c3ccccc3)C2)CCN1C(=O)NCCCCc1ccccc1 (mixture of isomers) [Example 92, 2,2-Dimethyl-N-(4-phenylbutyl)-4-(3-phenyl-1-piperidyl)piperidine-1-carboxamide] | > 1000
CCCCCNC(=O)N1[C@@H](C)COC[C@H]1c1ccc(F)cc1 [Example 141, (3R,5S)-3-(4-Fluorophenyl)-5-methyl-N-pentylmorpholine-4-carboxamide] | 200 to 1000
CC(C)CNC(=O)N1C(c2ccc(F)cc2)COCC1(C)C (stereo not drawn) [Example 140, 5-(4-Fluorophenyl)-N-isobutyl-3,3-dimethylmorpholine-4-carboxamide] | < 200
CCCCCNC(=O)N1CCC(N2CCCCC2)CC1(C)C (stereo not drawn) [Example 84, 2,2-Dimethyl-N-pentyl-4-(1-piperidyl)piperidine-1-carboxamide] | < 200
CCCCCNC(=O)N1C(c2ccc(OC)cc2F)COCC1(C)C (stereo not drawn) [Example 160, 5-(2-Fluoro-4-methoxyphenyl)-3,3-dimethyl-N-pentylmorpholine-4-carboxamide] | < 200
CC1(C)CC(N2CCCCC2)/C(=C/c2ccccc2)CN1C(=O)NCCCCc1ccccc1 (stereo not drawn) [Example 128, (5E)-5-Benzylidene-2,2-dimethyl-N-(4-phenylbutyl)-4-(1-piperidyl)piperidine-1-carboxamide] | < 200
CC1CC(N2CCCCC2)CCN1C(=O)NCCCCc1ccccc1 (mixture of isomers) [Example 94, 2-Methyl-N-(4-phenylbutyl)-4-(1-piperidyl)piperidine-1-carboxamide] | < 200
CC1CCC(N2CCCCC2)CN1C(=O)NCCCCc1ccccc1 (stereo not drawn) [Example 100, 2-Methyl-N-(4-phenylbutyl)-5-(1-piperidyl)piperidine-1-carboxamide] | 200 to 1000
CC1(C)CCc2c(-c3ccccn3)cccc2N1C(=O)NCCc1ccccc1 [Example 5, 2,2-Dimethyl-N-phenethyl-5-(pyridin-2-yl)-3,4-dihydroquinoline-1(2H)-carboxamide] | > 1000
CC1(C)CC(N2CCCCC2c2ccccc2)CCN1C(=O)NCCCCc1ccccc1 (mixture of isomers) [Example 91, 2,2-Dimethyl-N-(4-phenylbutyl)-4-(2-phenyl-1-piperidyl)piperidine-1-carboxamide] | > 1000
CCCCCNC(=O)N1C(c2ccc(F)cc2)COCC1(C)C (single isomer, unassigned) [Example 139, (5S) or (5R)-5-(4-fluorophenyl)-3,3-dimethyl-N-pentylmorpholine-4-carboxamide] | < 200
CCCCCNC(=O)N1C(c2ccc(F)c(F)c2)COCC1(C)C (stereo not drawn) [Example 162, 5-(3,4-Difluorophenyl)-3,3-dimethyl-N-pentylmorpholine-4-carboxamide] | < 200
CCCCCNC(=O)N1[C@@H]2CC[C@H]1C[C@H](N1CCCCC1)C2 [Example 102, Exo-N-Pentyl-3-(1-piperidyl)-8-azabicyclo[3.2.1]octane-8-carboxamide] | > 1000
CC1C(c2ccccc2)CCCN1C(=O)NCCCCc1ccccc1 (mixture of isomers) [Example 81, 2-Methyl-3-phenyl-N-(4-phenylbutyl)piperidine-1-carboxamide] | 200 to 1000
